The values below come from patent US12331046B2, “CTPS1 inhibitors and uses thereof” (Nimbus Clotho, Inc., priority 2020, dated 2025).

By IC50 is commonly meant the point on the concentration scale where inhibition reaches its midpoint. Low values mean higher potency, high ones lower potency.

The target in the test is human CTPS1 (Homo sapiens (Human), UniProt P17812). Put plainly: hCTPS1 biochemical assay (ADP-Glo). The settings on record: hCTPS1 25 nM, ATP 120 uM, UTP 160 uM, GTP 60 uM, L-Glutamine 100 uM, 25 degrees C. A general note: In ADP-Glo the light output rises with the ADP produced.
Sequence of human CTPS1 (P17812 whole entry): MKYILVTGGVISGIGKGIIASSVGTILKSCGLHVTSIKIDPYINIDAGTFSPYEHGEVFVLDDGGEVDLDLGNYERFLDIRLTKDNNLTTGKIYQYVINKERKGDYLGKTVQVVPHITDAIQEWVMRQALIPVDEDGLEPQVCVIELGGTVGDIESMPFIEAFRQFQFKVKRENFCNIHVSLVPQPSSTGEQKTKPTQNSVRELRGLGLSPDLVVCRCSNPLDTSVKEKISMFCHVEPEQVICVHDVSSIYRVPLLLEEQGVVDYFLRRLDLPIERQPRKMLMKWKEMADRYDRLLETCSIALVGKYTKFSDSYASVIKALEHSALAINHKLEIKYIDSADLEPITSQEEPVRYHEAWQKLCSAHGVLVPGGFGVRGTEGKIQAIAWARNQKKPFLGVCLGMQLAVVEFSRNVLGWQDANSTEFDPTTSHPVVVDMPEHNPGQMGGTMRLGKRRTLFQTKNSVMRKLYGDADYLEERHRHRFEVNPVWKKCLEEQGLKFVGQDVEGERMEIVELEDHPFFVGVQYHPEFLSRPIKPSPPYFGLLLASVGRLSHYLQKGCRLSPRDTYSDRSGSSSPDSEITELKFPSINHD

On to `CCOc1cncc(-c2cnc(C(=O)NC(CCN3CC[C@H](F)C3)c3cc(NS(=O)(=O)C4CC4)ccn3)s2)n1` (stereo partly drawn) [I-130, N-(1-(4-(cyclopropanesulfonamido)pyridin-2-yl)-3-((S)-3-fluoropyrrolidin-1-yl)propyl)-5-(6-ethoxypyrazin-2-yl)thiazole-2-carboxamide], for which the IC50 was below 100 nM. The same measure for `CCOc1cncc(-c2cnc(C(=O)NC(CCN3CC[C@@H](F)C3)c3cc(NS(=O)(=O)C4CC4)ccn3)s2)n1` (stereo partly drawn) [I-131, N-(1-(4-(cyclopropanesulfonamido)pyridin-2-yl)-3-((R)-3-fluoropyrrolidin-1-yl)propyl)-5-(6-ethoxypyrazin-2-yl)thiazole-2-carboxamide]: below 100 nM. The same measure for `CCOc1cncc(-c2cnc(C(=O)NC3(c4cc(NS(=O)(=O)C5CC5)ccn4)CCOCC3)s2)n1` [I-132]: below 100 nM; for `O=C(c1ncc(-c2cnc3[nH]cc(CC(F)F)c3n2)s1)N1CCCC1c1ccnc(NS(=O)(=O)C2CC2)n1` (centres unmarked) [I-137, N-[4-(1-{5-[7-(2,2-difluoroethyl)-5H-pyrrolo[2,3-b]pyrazin-2-yl]-1,3-thiazole-2-carbonyl}pyrrolidin-2-yl)pyrimidin-2-yl] cyclopropanesulfonamide]: below 100 nM; for `CCOc1cncc(-c2cnc(C(=O)N[C@@H](C[C@H]3CCCCN3C)c3cc(NS(=O)(=O)C4CC4)ccn3)s2)n1` [I-142, N—((S)-1-(4-(cyclopropanesulfonamido)pyridin-2-yl)-2-((R)-1-methylpiperidin-2-yl)ethyl)-5-(6-ethoxypyrazin-2-yl)thiazole-2-carboxamide]: below 100 nM. The same measure for `CCOc1cncc(-c2cnc(C(=O)N[C@H](C[C@H]3CCCCN3C)c3cc(NS(=O)(=O)C4CC4)ccn3)s2)n1` [I-145, N—((R)-1-(4-(cyclopropanesulfonamido)pyridin-2-yl)-2-((R)-1-methylpiperidin-2-yl)ethyl)-5-(6-ethoxypyrazin-2-yl)thiazole-2-carboxamide]: below 100 nM; for `CCOc1cncc(-c2cnc(C(=O)NC(c3cc(NS(=O)(=O)C4CC4)ccn3)C3CCN(C)CC3)s2)n1` (centres unmarked) [I-146, N-((4-(cydopropanesulfonamido)pyridin-2-yl)(1-methylpiperidin-4-yl)methyl)-5-(6-ethoxypyrazin-2-yl)thiazole-2-carboxamide]: below 100 nM; for `CCOc1cncc(-c2cnc(C(=O)N[C@@H](c3cc(NS(=O)(=O)C4CC4)ccn3)C3CCN(C)CC3)s2)n1` [I-147, (R)—N-((4-(cyclopropanesulfonamido)pyridin-2-yl)(1-methylpiperidin-4-yl)methyl)-5-(6-ethoxypyrazin-2-yl)thiazole-2-carboxamide]: below 100 nM. For the compound `CCOc1cncc(-c2cnc(C(=O)N[C@H](c3cc(NS(=O)(=O)C4CC4)ccn3)C3CCN(C)CC3)s2)n1` [I-148, (S)—N-((4-(cyclopropanesulfonamido)pyridin-2-yl)(1-methylpiperidin-4-yl)methyl)-5-(6-ethoxypyrazin-2-yl)thiazole-2-carboxamide], the IC50 was below 100 nM. Turning to `CCn1ncc2ncc(-c3cnc(C(=O)NCc4cc(NS(=O)(=O)C5CC5)ccn4)s3)nc21` [I-149, N-((4-(cyclopropanesulfonamido)pyridin-2-yl)methyl)-5-(1-ethyl-1H-pyrazolo[3,4-b]pyrazin-6-yl)thiazole-2-carboxamide], the IC50 was at least 1000 nM. The same measure for `CC[C@H](NC(=O)c1ncc(-c2cnn3ccc(Cl)cc23)s1)c1cc(NS(=O)(=O)C2CC2)ccn1` [I-150, (S)-5-(5-chloropyrazolo[1,5-a]pyridin-3-yl)-N-(1-(4-(cyclopropanesulfonamido)pyridin-2-yl)propyl)thiazole-2-carboxamide]: below 100 nM; for `CC[C@@H](NC(=O)c1ncc(-c2cnn3ccc(Cl)cc23)s1)c1cc(NS(=O)(=O)C2CC2)ccn1` [I-151, (R)-5-(5-chloropyrazolo[1,5-a]pyridin-3-yl)-N-(1-(4-(cyclopropanesulfonamido)pyridin-2-yl)propyl)thiazole-2-carboxamide]: below 100 nM; for `CCOc1cncc(-c2cnc(C(=O)NC(CCN(C)C)c3cccc(NS(=O)(=O)C4CC4)c3)s2)n1` (centres unmarked) [I-152, N-(1-(3-(cyclopropanesulfonamido)phenyl)-3-(dimethylamino)propyl)-5-(6-ethoxypyrazin-2-yl)thiazole-2-carboxamide]: below 100 nM.

`CCOc1cncc(-c2cnc(C(=O)NC(c3cc(NS(=O)(=O)C4CC4)ccn3)C3CCNCC3)s2)n1` (centres unmarked) [I-153, N-((4-(cyclopropanesulfonamido)pyridin-2-yl)(piperidin-4-yl)methyl)-5-(6-ethoxypyrazin-2-yl)thiazole-2-carboxamide] came in with an IC50 below 100 nM.

Regarding `O=C(NCc1cc(NS(=O)(=O)C2CC2)ccn1)c1ncc(-c2cncc3c(Cl)cnn23)s1` [I-154], the half-inhibitory concentration (IC50) was below 100 nM.

Consider `CCOc1cncc(-c2cnc(C(=O)N[C@@H](CCCN(C)C)c3cc(NS(=O)(=O)C4CC4)ccn3)s2)n1` [I-155, (S)—N-(1-(4-(cyclopropanesulfonamido)pyridin-2-yl)-4-(dimethylamino)butyl)-5-(6-ethoxypyrazin-2-yl)thiazole-2-carboxamide], for which the half-maximal inhibitory concentration (IC50) was below 100 nM. The same measure for `CCOc1cncc(-c2cnc(C(=O)N[C@H](CCCN(C)C)c3cc(NS(=O)(=O)C4CC4)ccn3)s2)n1` [I-156, (R)—N-(1-(4-(cyclopropanesulfonamido)pyridin-2-yl)-4-(dimethylamino)butyl)-5-(6-ethoxypyrazin-2-yl)thiazole-2-carboxamide]: below 100 nM; for `CCOc1cncc(-c2cnc(C(=O)N[C@](C)(CCOC)c3cc(NS(=O)(=O)C4CC4)ccn3)s2)n1` [I-157, (R)—N-(2-(4-(cyclopropanesulfonamido)pyridin-2-yl)-4-methoxybutan-2-yl)-5-(6-ethoxypyrazin-2-yl)thiazole-2-carboxamide]: 100 to 1000 nM; for `CCOc1cncc(-c2cnc(C(=O)N[C@H](CCN3CCCC3)c3cc(NS(=O)(=O)C4CC4)ccn3)s2)n1` [I-158, (R)—N-(1-(4-(cyclopropanesulfonamido)pyridin-2-yl)-3-(pyrrolidin-1-yl)propyl)-5-(6-ethoxypyrazin-2-yl)thiazole-2-carboxamide]: below 100 nM. The same measure for `CCOc1cncc(-c2cnc(C(=O)N[C@@H](CCN3CCCC3)c3cc(NS(=O)(=O)C4CC4)ccn3)s2)n1` [I-159, (S)—N-(1-(4-(cyclopropanesulfonamido)pyridin-2-yl)-3-(pyrrolidin-1-yl)propyl)-5-(6-ethoxypyrazin-2-yl)thiazole-2-carboxamide]: below 100 nM; for `CCOc1cncc(-c2cnc(C(=O)N[C@H](CCN3CCCCC3)c3cc(NS(=O)(=O)C4CC4)ccn3)s2)n1` [I-160, (R)—N-(1-(4-(cyclopropanesulfonamido)pyridin-2-yl)-3-(piperidin-1-yl)propyl)-5-(6-ethoxypyrazin-2-yl)thiazole-2-carboxamide]: 100 to 1000 nM. Turning to `CCOc1cncc(-c2cnc(C(=O)N[C@@H](CCN3CCCCC3)c3cc(NS(=O)(=O)C4CC4)ccn3)s2)n1` [I-161, (S)—N-(1-(4-(cyclopropanesulfonamido)pyridin-2-yl)-3-(piperidin-1-yl)propyl)-5-(6-ethoxypyrazin-2-yl)thiazole-2-carboxamide], the IC50 was below 100 nM. As for `Cc1cc2c(=O)[nH]c3ccc(C(=O)NCc4cc(NS(=O)(=O)C5CC5)ccn4)cc3n2c1` [I-162], the IC50 fell in the range of 100 to 1000 nM.

As for `CCOc1cncc(-c2cnc(C(=O)N[C@@](C)(CCOC)c3cc(NS(=O)(=O)C4CC4)ccn3)s2)n1` [I-163, (S)—N-(2-(4-(cyclopropanesulfonamido)pyridin-2-yl)-4-methoxybutan-2-yl)-5-(6-ethoxypyrazin-2-yl)thiazole-2-carboxamide], the IC50 was below 100 nM.

`CCOc1cncc(-c2cnc(C(=O)N[C@H](CCN3CCOCC3)c3cc(NS(=O)(=O)C4CC4)ccn3)s2)n1` [I-164, (R)—N-(1-(4-(cyclopropanesulfonamido)pyridin-2-yl)-3-morpholinopropyl)-5-(6-ethoxypyrazin-2-yl)thiazole-2-carboxamide] registered an IC50 below 100 nM.

`CCOc1cncc(-c2cnc(C(=O)N[C@@H](CCN3CCOCC3)c3cc(NS(=O)(=O)C4CC4)ccn3)s2)n1` [I-165, (S)—N-(1-(4-(cyclopropanesulfonamido)pyridin-2-yl)-3-morpholinopropyl)-5-(6-ethoxypyrazin-2-yl)thiazole-2-carboxamide] displayed an IC50 below 100 nM. `CCOc1cncc(-c2cnc(C(=O)NC(CCCN)c3cc(NS(=O)(=O)C4CC4)ccn3)s2)n1` (centres unmarked) [I-166, N-(4-amino-1-(4-(cyclopropanesulfonamido)pyridin-2-yl)butyl)-5-(6-ethoxypyrazin-2-yl)thiazole-2-carboxamide] gave an IC50 below 100 nM.

With `CCOc1cncc(-c2cnc(C(=O)N3CCNC[C@@H]3c3ccnc(NS(=O)(=O)C4CC4)n3)s2)n1` [I-167, (R)—N-(4-(1-(5-(6-ethoxypyrazin-2-yl)thiazole-2-carbonyl)piperazin-2-yl)pyrimidin-2-yl)cyclopropanesulfonamide], the IC50 was at least 1000 nM. Take `CCOc1cncc(-c2cnc(C(=O)N3CCNC[C@H]3c3ccnc(NS(=O)(=O)C4CC4)n3)s2)n1` [I-168, (S)—N-(4-(1-(5-(6-ethoxypyrazin-2-yl)thiazole-2-carbonyl)piperazin-2-yl)pyrimidin-2-yl)cyclopropanesulfonamide]: the concentration for half-maximal inhibition (IC50) was 100 to 1000 nM. With `O=C(NCc1cc(NS(=O)(=O)C2CC2)ccn1)c1ncc(-c2cnc3ccc(Cl)cn23)s1` [I-170] the figure was 100 to 1000 nM. The same measure for `CCc1nc2cc(C(=O)NCc3cc(NS(=O)(=O)C4CC4)ccn3)ccc2[nH]c1=O` [I-171, N-((4-(cyclopropanesulfonamido)pyridin-2-yl)methyl)-3-ethyl-2-oxo-1,2-dihydroquinoxaline-6-carboxamide]: at least 1000 nM; for `CCOc1cncc(-c2cnc(C(=O)N[C@H](C[C@H]3CCCCN3)c3cc(NS(=O)(=O)C4CC4)ccn3)s2)n1` [I-172, N—((R)-1-(4-(cyclopropanesulfonamido)pyridin-2-yl)-2-((R)-piperidin-2-yl)ethyl)-5-(6-ethoxypyrazin-2-yl)thiazole-2-carboxamide]: below 100 nM.
